From ChEMBL document CHEMBL1201862, “PubChem BioAssay data set” (2004) come the findings set out here.

Test systems include SNB-75; SF-268; RXF 393; K562; M14; SK-MEL-2; CAKI-1; SN12C; UO-31; COLO 205; 786-0; MOLT-4; TK-10; HT-29; SK-OV-3; NCI-H226; SNB-19.
Common to all, as to test: DTP human tumour cell line panel, 48 h

Structures are written as SMILES.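 Briefly, cells in 96-well plates were exposed to five compound concentrations for 48 h, and endpoints were estimated by linear interpolation. GI50: concentration for 50% inhibition of growth.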 Activity calls are given as the source filed them. Rule as the data show it: active = GI50 up to about 1.1 µM and inactive = higher. Some results are limits rather than exact numbers.

One may read the GI50 as the concentration at which growth is held to half of that of the control. As to `COc1cc(Nc2nc3cc(C(F)(F)F)ccc3nc2-c2ccccc2)cc(OC)c1OC`, the GI50 in the test with SNB-75 was 39.7 µM (inactive); with SF-268 it was > 100 µM (inactive); with RXF 393 it was 18.1 µM (inactive); in the test with K562 it was > 100 µM (inactive); in the test on M14, > 100 µM (inactive); with SK-MEL-2 it was > 100 µM (inactive). In addition, the GI50 with CAKI-1 was < 0.01 µM (active); in the test with SN12C it was > 100 µM (inactive); in the test on UO-31 it was > 100 µM (inactive); in the test with COLO 205, > 100 µM (inactive); in the test on 786-0 it was 40.7 µM (inactive); in the test on MOLT-4 it was > 100 µM (inactive). Moreover, the GI50 in the test with TK-10 is 30.5 µM (inactive); in the test on HT-29, > 100 µM (inactive); with SK-OV-3, 31.6 µM (inactive); in the test with NCI-H226, > 100 µM (inactive).
Regarding `COc1ccc(C2Oc3cc(OC)c(O)c(C)c3[C@H]2C)cc1` (some centres undefined), the GI50 is 7.87 µM (inactive) in the test on SNB-75; 41.4 µM (inactive) with SF-268; 23 µM (inactive) in the test with RXF 393; 61.2 µM (inactive) in the test with K562; > 100 µM (inactive) in the test on M14; > 100 µM (inactive) in the test with SK-MEL-2. The GI50 is > 100 µM (inactive) in the test on CAKI-1; 17.1 µM (inactive) in the test with UO-31; > 100 µM (inactive) in the test with COLO 205; > 100 µM (inactive) in the test with 786-0; 33.3 µM (inactive) in the test on MOLT-4; 26.9 µM (inactive) in the test with SNB-19. In addition, the GI50 in the test with TK-10 is > 100 µM (inactive); in the test on HT-29, > 100 µM (inactive); in the test with SK-OV-3, > 100 µM (inactive); with NCI-H226, 26.9 µM (inactive).
Regarding `O=C(c1ccccc1)c1nnc(C(=O)c2ccccc2)nn1`, the GI50 with SNB-75 was 83.4 µM (inactive); with SF-268, > 344 µM (inactive); in the test with RXF 393, 151 µM (inactive); in the test with K562 it was 119 µM (inactive); with M14, 272 µM (inactive); in the test on SK-MEL-2, > 344 µM (inactive). Moreover, the GI50 in the test with CAKI-1 is > 344 µM (inactive); in the test with SN12C, > 344 µM (inactive); in the test with UO-31, > 344 µM (inactive); with COLO 205, > 344 µM (inactive); in the test on 786-0 it was 179 µM (inactive); in the test with MOLT-4 it was > 344 µM (inactive). Moreover, the GI50 with SNB-19 was > 344 µM (inactive); with TK-10, > 344 µM (inactive); in the test on HT-29, > 344 µM (inactive); in the test on SK-OV-3, 278 µM (inactive); in the test with NCI-H226 it was > 344 µM (inactive).
`CCCCCCCCC(=O)CCCCCCCCC(=O)O`: the GI50 in the test on SNB-75 is 37.2 µM (inactive); in the test on SF-268, 23.9 µM (inactive); with RXF 393, 27.4 µM (inactive); in the test on K562, 18.9 µM (inactive); in the test with M14, 32.1 µM (inactive); in the test on SK-MEL-2, 36.1 µM (inactive). Moreover, the GI50 with CAKI-1 is 34.5 µM (inactive); in the test on SN12C, 25.6 µM (inactive); in the test with UO-31 it was 33.3 µM (inactive); in the test on COLO 205, 21.8 µM (inactive); in the test with 786-0, 22.9 µM (inactive); in the test with MOLT-4, 14.8 µM (inactive). Further, the GI50 in the test on SNB-19 was 61.1 µM (inactive); in the test with TK-10, 33.3 µM (inactive); in the test on HT-29, 23 µM (inactive); with SK-OV-3 it was > 100 µM (inactive); with NCI-H226, 27.2 µM (inactive).
Consider `CC(=O)ON(C(C)=O)C1C(COC(c2ccccc2)(c2ccccc2)c2ccccc2)OC2OC3(CCCC3)OC21` (centres undefined), for which the GI50 in the test on SNB-75 is 21.2 µM (inactive); with SF-268, 10.5 µM (inactive); in the test on RXF 393 it was 4.44 µM (inactive); in the test with K562, 4.27 µM (inactive); in the test with M14 it was 7.18 µM (inactive); with SK-MEL-2, 27.2 µM (inactive). Also, the GI50 in the test on CAKI-1 was > 100 µM (inactive); in the test on SN12C, 5.13 µM (inactive); in the test on UO-31, 5.36 µM (inactive); in the test with COLO 205, > 23.2 µM (inactive); with 786-0, 30.9 µM (inactive); in the test on MOLT-4, 3.15 µM (inactive). Besides, the GI50 in the test with SNB-19 was 5.38 µM (inactive); with TK-10 it was > 81.7 µM (inactive); in the test on HT-29 it was > 26.6 µM (inactive); in the test on SK-OV-3, 5.53 µM (inactive); with NCI-H226 it was 9.16 µM (inactive).
`CCN1C(=O)/C(=C\c2coc3ccccc3c2=O)SC1=S`: the GI50 was 41.2 µM (inactive) in the test on SNB-75; 66.8 µM (inactive) in the test on SF-268; 36.5 µM (inactive) in the test on RXF 393; > 100 µM (inactive) in the test on K562; > 100 µM (inactive) with M14; > 100 µM (inactive) with SK-MEL-2. Also, the GI50 was > 100 µM (inactive) in the test with CAKI-1; > 100 µM (inactive) in the test with SN12C; > 100 µM (inactive) in the test with UO-31; > 100 µM (inactive) with COLO 205; 73.8 µM (inactive) in the test with 786-0; > 100 µM (inactive) in the test on MOLT-4. In addition, the GI50 in the test with SNB-19, in the test on TK-10, in the test with HT-29, in the test on SK-OV-3 and in the test on NCI-H226 was > 100 µM (inactive) each time.
As to `CN1C(c2ccccc2)CC(=O)C(N)C1c1ccccc1` (centres undefined), the GI50 in the test with SNB-75 is 63.5 µM (inactive); with SF-268, 38.2 µM (inactive); with RXF 393 it was 24.4 µM (inactive); in the test with K562, 30.6 µM (inactive); in the test with M14 it was 26.6 µM (inactive); in the test on SK-MEL-2, 19.4 µM (inactive). The GI50 was 28.3 µM (inactive) in the test with CAKI-1; 34.7 µM (inactive) in the test with SN12C; 25.5 µM (inactive) in the test on UO-31; 18.5 µM (inactive) with COLO 205; 31.3 µM (inactive) in the test with 786-0; 20.1 µM (inactive) in the test on MOLT-4. In addition, the GI50 was 56.9 µM (inactive) in the test with SNB-19; 43.7 µM (inactive) in the test with TK-10; 23.9 µM (inactive) in the test on HT-29; > 58.6 µM (inactive) in the test with SK-OV-3; 39.4 µM (inactive) with NCI-H226.
Turning to `O=C1C2C3C=CC(C2C(=O)N1COP(=O)(O)O)C1C2C(=O)N(COP(=O)(O)O)C(=O)C2C31` (centres undefined), the GI50 with SNB-75 is > 100 µM (inactive); in the test on SF-268, > 67.5 µM (inactive); in the test with RXF 393, > 100 µM (inactive); in the test with K562 it was > 67 µM (inactive); in the test with M14, > 100 µM (inactive); in the test with SK-MEL-2, > 100 µM (inactive). Further, the GI50 with CAKI-1 was > 100 µM (inactive); with SN12C, > 74.3 µM (inactive); in the test on UO-31, > 100 µM (inactive); in the test on COLO 205, > 47.5 µM (inactive); with 786-0 it was > 71.6 µM (inactive); with MOLT-4, > 100 µM (inactive). Also, the GI50 in the test with SNB-19, with TK-10, with HT-29, in the test with SK-OV-3 and in the test on NCI-H226 was > 100 µM (inactive) in each case.
